From ChEMBL document CHEMBL3046455, “Synthesis and pharmacological evaluation of some novel 4-isopropyl thiazole-based sulfonyl derivatives as potent antimicrobial and antitubercular agents” (Med Chem Res, 2013) come the findings set out here.

The subject of data set [1] is Bacillus subtilis. Kind of data set: Antibacterial activity against Bacillus subtilis ATCC 60511 after 24 hr by broth microdilution method. It is filed as functional. The note with it: ATCC 60511, 24 h. (In general: In broth dilution the organism is exposed to a series of concentrations in liquid medium.)
The subject of data set [2] is Escherichia coli. Kind of data set: Antibacterial activity against Escherichia coli ATCC 10536 after 24 hr by broth microdilution method. The format is functional. The note with it: ATCC 10536, 24 h.
Data set [3] has as its system Saccharomyces cerevisiae. Description: Antifungal activity against Saccharomyces cerevisiae ATCC 9763 after 24 hr by broth microdilution method. It is filed as functional. The note with it: ATCC 9763, 24 h.
Data set [4] has as its system Candida tropicalis. Kind of data set: Antifungal activity against Candida tropicalis ATCC 1369 after 24 hr by broth microdilution method. The note with it: ATCC 1369, 24 h. It is filed as functional.
In data set [5] the test system is Mycobacterium tuberculosis. Kind of data set: Antitubercular activity against Mycobacterium tuberculosis H37Rv after 21 days by broth microdilution method. The conditions noted are these: 504 h. The format is functional.
For data set [6], the system named is Aspergillus niger. Kind of data set: Antifungal activity against Aspergillus niger ATCC 6275 after 24 hr by broth microdilution method. The format is functional. The conditions noted are these: ATCC 6275, 24 h.
For data set [7], the system named is Klebsiella pneumoniae. Kind of data set: Antibacterial activity against Klebsiella pneumoniae ATCC 10031 after 24 hr by broth microdilution method. The note with it: ATCC 10031, 24 h. It is filed as functional.
For data set [8], the system named is Staphylococcus aureus. Kind of data set: Antibacterial activity against Staphylococcus aureus ATCC 11632 after 24 hr by broth microdilution method. The format is functional. The note with it: ATCC 11632, 24 h.
For data set [9], the system named is Enterococcus faecalis. Kind of data set: Antibacterial activity against Enterococcus faecalis ATCC 14506 after 24 hr by broth microdilution method. It is filed as functional. The conditions noted are these: ATCC 14506, 24 h.
Data set [10] concerns A549. Description: Cytotoxicity against Homo sapiens (human) A549 cells at […] by MTT assay relative to control. The format is cell-based. (In general: Tetrazolium dyes change colour on reduction, which living cells bring about.)
The test system of data set [11] is Pseudomonas aeruginosa. Description: Antibacterial activity against Pseudomonas aeruginosa ATCC 10145 after 24 hr by broth microdilution method. It is filed as functional. The conditions noted are these: ATCC 10145, 24 h.

Molecules are shown by their SMILES. Converted amounts (≈) assume the structure as drawn.

The term MIC denotes the lowest concentration found to suppress growth.

For the compound `CC(C)c1csc(-c2nnc(S(=O)(=O)Cc3ccccc3C(F)(F)F)o2)n1`, the MIC in [1] was 31.2 µg/mL (≈ 74.9 µM); in data set [2], 8 µg/mL (≈ 19.2 µM); in [3] it was 8 µg/mL (≈ 19.2 µM); in data set [4], 31.2 µg/mL (≈ 74.9 µM); in [5], 2 µg/mL (≈ 4.79 µM); in data set [6] it was 125 µg/mL (≈ 299 µM). Moreover, the MIC was 2 µg/mL (≈ 4.79 µM) in data set [7], 8 µg/mL (≈ 19.2 µM) in data set [8], 16 µg/mL (≈ 38.3 µM) in data set [9] and 4 µg/mL (≈ 9.58 µM) in data set [11]. Also, the Activity in data set [10] amounted to 50%.
Consider `CC(C)c1csc(-c2nnc(S(=O)(=O)Cc3ccc(C(F)(F)F)cc3)n2/N=C/c2ccc(Cl)cc2)n1`, for which the MIC in [1] was determined as 4 µg/mL (≈ 7.22 µM); in data set [2] it was 8 µg/mL (≈ 14.4 µM); in data set [3] it was 4 µg/mL (≈ 7.22 µM); in data set [4] it was 8 µg/mL (≈ 14.4 µM); in data set [5], 4 µg/mL (≈ 7.22 µM); in data set [6], 4 µg/mL (≈ 7.22 µM). The minimum inhibitory concentration (MIC) in data set [7] was 16 µg/mL (≈ 28.9 µM); in data set [8] it was 4 µg/mL (≈ 7.22 µM); in data set [9], 8 µg/mL (≈ 14.4 µM); in data set [11] it was 4 µg/mL (≈ 7.22 µM). Besides, the Activity in [10] amounted to 50%.
Consider `CC(C)c1csc(-c2nnc(S(=O)(=O)Cc3ccc(OC(F)(F)F)cc3)n2-c2ccccc2)n1`, for which the minimal inhibitory concentration (MIC) in [1] was found to be 8 µg/mL (≈ 15.7 µM); in data set [2] it was 2 µg/mL (≈ 3.93 µM); in [3], 16 µg/mL (≈ 31.5 µM); in [4] it was 16 µg/mL (≈ 31.5 µM); in data set [5], 1 µg/mL (≈ 1.97 µM); in data set [6] it was 31.2 µg/mL (≈ 61.4 µM). Also, the minimal inhibitory concentration (MIC) in data set [7] worked out at 4 µg/mL (≈ 7.87 µM); in data set [8], 31.2 µg/mL (≈ 61.4 µM); in [9] it was 8 µg/mL (≈ 15.7 µM); in data set [11] it was 8 µg/mL (≈ 15.7 µM). For the same compound, in data set [10], the Activity came to 50%.
As for `CC(C)c1csc(-c2nnc(S(=O)(=O)Cc3ccc(C(F)(F)F)cc3)n2/N=C/c2c(F)cccc2F)n1`, the MIC turned out to be 8 µg/mL (≈ 14.4 µM) in data set [1]; 4 µg/mL (≈ 7.2 µM) in [2]; 16 µg/mL (≈ 28.8 µM) in [3]; 4 µg/mL (≈ 7.2 µM) in data set [4]; 0.5 µg/mL (≈ 0.9 µM) in [5]; 8 µg/mL (≈ 14.4 µM) in data set [6]. Also, the MIC in data set [7] stood at 16 µg/mL (≈ 28.8 µM); in [8] it was 8 µg/mL (≈ 14.4 µM); in [9], 16 µg/mL (≈ 28.8 µM); in data set [11] it was 8 µg/mL (≈ 14.4 µM). The compound also gave an Activity in [10] of 50%.
